Assay results published in publication PMC1977928, “Chlorambucil-monoglutathionyl conjugate is sequestered by human alpha class glutathione S-transferases” (British Journal of Cancer, 1992).

Key:
Type in all cases: biochemical
GST A1-1 = target: T1, GST A1-1 (Homo sapiens, UniProt P08263); test: inhibition of CDNB conjugation activity (Dixon and Hanes plots)
T1 construct: gene GSTA1; homodimer purified from human liver cytosol
T1 sequence (P08263 2-222): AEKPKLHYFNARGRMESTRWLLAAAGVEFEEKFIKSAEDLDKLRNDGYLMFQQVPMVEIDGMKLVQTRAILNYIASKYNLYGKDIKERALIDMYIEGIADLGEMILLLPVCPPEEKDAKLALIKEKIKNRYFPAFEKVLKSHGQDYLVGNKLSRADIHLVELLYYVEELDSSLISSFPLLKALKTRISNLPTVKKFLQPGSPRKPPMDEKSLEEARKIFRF
Excerpt: inhibition of CDNB conjugation activity (Dixon and Hanes plots) on GST A1-1 | CHBSG was a pure competitive inhibitor of the activity of GSTs A1-1 and A2-2 towards 1-chloro-2,4-dinitrobenzene

GST M1a-1a = target: T2, GST M1a-1a (Homo sapiens, UniProt P09488); test: inhibition of CDNB conjugation activity
T2 construct: gene GSTM1; homodimer purified from human liver cytosol
T2 sequence (P09488 2-218): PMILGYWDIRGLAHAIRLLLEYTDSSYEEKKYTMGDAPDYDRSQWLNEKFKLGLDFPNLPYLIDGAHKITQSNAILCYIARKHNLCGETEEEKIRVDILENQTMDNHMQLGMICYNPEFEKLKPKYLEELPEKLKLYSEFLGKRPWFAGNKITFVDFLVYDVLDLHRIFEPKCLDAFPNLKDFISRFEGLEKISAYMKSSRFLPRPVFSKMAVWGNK

GST P1-1 = target: T3, GST P1-1 (Homo sapiens, UniProt P09211); test: inhibition of CDNB conjugation activity
T3 construct: gene GSTP1; homodimer purified from human kidney cytosol
T3 sequence (P09211 2-210): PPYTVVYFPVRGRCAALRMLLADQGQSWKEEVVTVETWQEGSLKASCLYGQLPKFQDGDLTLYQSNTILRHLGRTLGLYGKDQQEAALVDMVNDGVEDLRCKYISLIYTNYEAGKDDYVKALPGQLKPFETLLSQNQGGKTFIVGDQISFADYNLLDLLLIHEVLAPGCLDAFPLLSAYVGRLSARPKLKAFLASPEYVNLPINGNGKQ

GST A2-2 = target: T4, GST A2-2 (Homo sapiens, UniProt P09210); test: inhibition of CDNB conjugation activity (Dixon and Hanes plots)
T4 construct: gene GSTA2; homodimer purified from human liver cytosol
T4 sequence (P09210 2-222): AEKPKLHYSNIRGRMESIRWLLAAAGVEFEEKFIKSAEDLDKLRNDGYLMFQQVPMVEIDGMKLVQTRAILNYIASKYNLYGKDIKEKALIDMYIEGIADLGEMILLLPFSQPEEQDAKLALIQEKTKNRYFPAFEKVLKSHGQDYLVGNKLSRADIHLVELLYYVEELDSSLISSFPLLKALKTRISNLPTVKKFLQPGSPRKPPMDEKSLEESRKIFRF

Q: How did the Ki (GST A1-1) turn out when `N[C@@H](CCC(=O)N[C@@H](CSCCN(CCCl)c1ccc(CCCC(=O)O)cc1)C(=O)NCC(=O)O)C(=O)O` [CHBSG] was run?
A: 1300 nM

Q: And the “inhibition of CDNB conjugation activity” value (GST M1a-1a)?
A: > 10 µM

Q: And the “inhibition of CDNB conjugation activity” value (GST P1-1)?
A: > 10 µM

Q: And the Ki (GST A2-2)?
A: 1200 nM
